Blank lines part the entries; values can stand above or below the molecule they belong to.
Legend:
[1] = molecular target: T1, PI3K alpha (p110 alpha) (Homo sapiens, UniProt P42336); assay: PI3K p110α (alpha) binding assay (Example 901); conditions: for IC50: read-out: IC50, inhibition of PI3K alpha (binding to p110 alpha)
T1 construct: purchased Upstate Cell Signaling Solutions, Charlottesville, Va
Description: Determination of the PI3 kinase activity of a Formula I compound is possible by a number of direct and indirect detection methods.

[2] = tested on: MDA-MB-361.1; assay: CellTiter-Glo cell proliferation assay, MDA-MB-361.1; assay type: cell-based; conditions: Breast, mutation status PI3K
Description: (§1) Efficacy of Formula I compounds was measured by a cell proliferation assay employing the following protocol (Promega Corp. Technical Bulletin TB288; Mendoza et al (2002) Cancer Res. 62:5485-5488):
(§2) 1. An aliquot of 100 μl of cell culture containing about 104 cells (PC3, Detroit562, or MDAMB361.1) in medium was deposited in each well of a 384-well, opaque-walled plate.
(§3) 2. Control wells were prepared containing medium and without cells.
(§4) 3. The compound was added to the experimental wells and incubated for 3-5 days.
(§5) 4. The plates were equilibrated to room temperature for approximately 30 minutes.
(§6) 5. A volume of CellTiter-Glo Reagent equal to the volume of cell culture medium present in each well was added.
(§7) 6. The contents were mixed for 2 minutes on an orbital shaker to induce cell lysis.
(§8) 7. The plate was incubated at room temperature for 10 minutes to stabilize the luminescence signal.
(§9) 8. Luminescence was recorded and reported in graphs as RLU=relative luminescence units.
(§10) Alternatively, cells were seeded at optimal density in a 96 well plate and incubated for 4 days in the presence of test compound. Alamar Blue™ was subsequently added to the assay medium, and cells were incubated for 6 hr before reading at 544 nm excitation, 590 nm emission. EC50 values were calculated using a sigmoidal dose response curve fit. The term EC50 refers to the half maximal effective concentration and is the concentration at which a drug induces a response halfway between the baseline and maximum after some specified exposure time. It is commonly used as a measure of drug potency.
(§11) The anti-proliferative effects of Formula I exemplary compounds were measured by the CellTiter-Glo® Assay against various tumor cell lines, including the following: […]

[3] = tested on: AU565; assay: CellTiter-Glo cell proliferation assay, AU565; assay type: cell-based; conditions: Homo sapiens, Breast, mutation status WT
Description: as §1, §2, §3, §4, §5, §6, §7, §8, §9, §10, §11

[4] = tested on: EVSA-T; assay: CellTiter-Glo cell proliferation assay, EVSA-T; assay type: cell-based; conditions: Homo sapiens, Breast, mutation status PTEN
Description: as §1, §2, §3, §4, §5, §6, §7, §8, §9, §10, §11

[5] = tested on: PC3; assay: CellTiter-Glo cell proliferation assay, PC3; assay type: cell-based; conditions: Homo sapiens, PC-3, Prostate, mutation status PTEN
Description: as §1, §2, §3, §4, §5, §6, §7, §8, §9, §10, §11

[6] = tested on: HCC1954; assay: CellTiter-Glo cell proliferation assay, HCC1954; assay type: cell-based; conditions: Homo sapiens, Breast, mutation status PI3K
Description: as §1, §2, §3, §4, §5, §6, §7, §8, §9, §10, §11

[7] = tested on: BT474; assay: CellTiter-Glo cell proliferation assay, BT474; assay type: cell-based; conditions: Homo sapiens, BT-474, Breast, mutation status PI3K(amped)
Description: as §1, §2, §3, §4, §5, §6, §7, §8, §9, §10, §11

[8] = tested on: SKBR3; assay: CellTiter-Glo cell proliferation assay, SKBR3; assay type: cell-based; conditions: Homo sapiens, SK-BR-3, Breast, mutation status WT
Description: as §1, §2, §3, §4, §5, §6
6. […]
as §8, §9
(§12) Alternatively, cells were seeded at optimal density in a 96 well plate and incubated for 4 days in the presence of test compound. Alamar Blue™ was subsequently added to the assay medium, and cells were incubated for 6 hr before reading at 544 nm excitation, 590 nm emission. EC50 values were calculated using a sigmoidal dose response curve fit. […]
as §11

[9] = tested on: H2122; assay: CellTiter-Glo cell proliferation assay, H2122; assay type: cell-based; conditions: Homo sapiens, NCI-H2122, Lung(NSCLC), mutation status K-RAS
Description: as §1, §2, §3, §4, §5, §6, §7, §8, §9, §10, §11

[10] = tested on: KPL4; assay: CellTiter-Glo cell proliferation assay, KPL4; assay type: cell-based; conditions: Breast, mutation status PI3K
Description: as §1, §2, §3, §4, §5, §6, §7, §8, §9, §10, §11

[11] = tested on: T47D; assay: CellTiter-Glo cell proliferation assay, T47D; assay type: cell-based; conditions: Homo sapiens, Breast, mutation status PI3K
Description: as §1, §2, §3, §4, §5, §6, §7, §8, §9, §10, §11

[12] = tested on: MFM223; assay: CellTiter-Glo cell proliferation assay, MFM223; assay type: cell-based; conditions: Homo sapiens, MFM-223, Breast, mutation status PI3K
Description: as §1, §2, §3, §4, §5, §6, §7, §8, §9, §10, §11

[13] = tested on: A375; assay: CellTiter-Glo cell proliferation assay, A375; assay type: cell-based; conditions: Homo sapiens, A-375, Melanoma, mutation status B-Raf
Description: as §1, §2, §3, §4, §5, §6
6. […]
as §8, §9, §12, §11

[14] = tested on: H520; assay: CellTiter-Glo cell proliferation assay, H520; assay type: cell-based; conditions: Homo sapiens, NCI-H520, Lung(NSCLC), mutation status PTEN
Description: as §1, §2, §3, §4, §5, §6
6. […]
as §8, §9, §12, §11

[15] = tested on: U87MG; assay: CellTiter-Glo cell proliferation assay, U87MG; assay type: cell-based; conditions: Homo sapiens, U-87 MG, Glioma, mutation status PTEN
Description: as §1, §2, §3, §4, §5, §6
6. […]
as §8, §9, §12, §11

[16] = tested on: KM12; assay: CellTiter-Glo cell proliferation assay, KM12; assay type: cell-based; conditions: Homo sapiens, Colon, mutation status PTEN
Description: as §1, §2, §3, §4, §5, §6
6. […]
as §8, §9, §12, §11

[17] = tested on: MDST8; assay: CellTiter-Glo cell proliferation assay, MDST8; assay type: cell-based; conditions: Colon, mutation status PTEN
Description: as §1, §2, §3, §4, §5, §6
6. […]
as §8, §9, §12, §11

T1 sequence (P42336 whole entry): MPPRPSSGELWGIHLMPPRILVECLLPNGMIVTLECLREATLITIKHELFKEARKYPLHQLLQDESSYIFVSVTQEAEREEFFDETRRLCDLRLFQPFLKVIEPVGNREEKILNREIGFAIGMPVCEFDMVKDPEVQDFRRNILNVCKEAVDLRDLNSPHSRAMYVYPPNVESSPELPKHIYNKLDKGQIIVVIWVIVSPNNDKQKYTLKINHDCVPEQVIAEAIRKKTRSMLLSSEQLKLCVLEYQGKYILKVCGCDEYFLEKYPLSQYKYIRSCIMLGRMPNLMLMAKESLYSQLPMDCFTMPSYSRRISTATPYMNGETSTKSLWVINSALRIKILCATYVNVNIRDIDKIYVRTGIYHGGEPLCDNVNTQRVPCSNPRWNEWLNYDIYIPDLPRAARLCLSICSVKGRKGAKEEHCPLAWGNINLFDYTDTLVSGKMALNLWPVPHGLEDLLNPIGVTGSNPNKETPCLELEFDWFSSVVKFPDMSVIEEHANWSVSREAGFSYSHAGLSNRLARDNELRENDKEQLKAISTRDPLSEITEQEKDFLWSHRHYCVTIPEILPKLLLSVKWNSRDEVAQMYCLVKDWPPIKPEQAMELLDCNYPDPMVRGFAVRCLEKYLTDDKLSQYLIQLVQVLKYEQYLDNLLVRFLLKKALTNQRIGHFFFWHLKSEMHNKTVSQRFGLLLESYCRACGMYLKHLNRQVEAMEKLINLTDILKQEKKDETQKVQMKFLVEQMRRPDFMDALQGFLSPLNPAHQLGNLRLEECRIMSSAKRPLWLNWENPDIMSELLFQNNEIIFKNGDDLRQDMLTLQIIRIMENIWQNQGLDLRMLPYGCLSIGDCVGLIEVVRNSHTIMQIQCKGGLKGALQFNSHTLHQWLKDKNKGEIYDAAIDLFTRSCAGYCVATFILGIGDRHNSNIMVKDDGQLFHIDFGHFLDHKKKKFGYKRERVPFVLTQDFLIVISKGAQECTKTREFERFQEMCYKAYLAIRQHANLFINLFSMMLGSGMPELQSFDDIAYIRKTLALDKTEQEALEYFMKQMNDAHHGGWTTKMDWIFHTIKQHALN
T1 sequence (P27986 whole entry partner): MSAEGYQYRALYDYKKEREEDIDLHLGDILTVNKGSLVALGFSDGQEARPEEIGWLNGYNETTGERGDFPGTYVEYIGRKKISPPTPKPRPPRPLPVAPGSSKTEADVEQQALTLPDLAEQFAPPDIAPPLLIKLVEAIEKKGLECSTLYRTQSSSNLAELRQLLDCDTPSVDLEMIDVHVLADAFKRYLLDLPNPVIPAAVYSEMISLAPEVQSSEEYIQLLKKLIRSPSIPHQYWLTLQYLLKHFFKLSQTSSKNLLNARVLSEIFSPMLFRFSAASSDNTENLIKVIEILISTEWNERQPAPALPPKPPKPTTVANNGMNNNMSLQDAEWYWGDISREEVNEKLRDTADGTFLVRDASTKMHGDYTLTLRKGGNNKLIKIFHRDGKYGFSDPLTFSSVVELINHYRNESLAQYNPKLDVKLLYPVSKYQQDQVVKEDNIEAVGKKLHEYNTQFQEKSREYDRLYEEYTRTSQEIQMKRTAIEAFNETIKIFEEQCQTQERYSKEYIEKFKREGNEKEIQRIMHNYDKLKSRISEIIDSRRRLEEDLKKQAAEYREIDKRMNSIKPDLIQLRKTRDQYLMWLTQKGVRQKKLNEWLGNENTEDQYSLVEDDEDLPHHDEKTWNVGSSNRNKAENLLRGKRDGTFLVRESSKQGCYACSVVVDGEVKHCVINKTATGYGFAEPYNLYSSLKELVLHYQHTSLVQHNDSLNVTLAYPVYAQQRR

Structure (SMILES): CN(C(=O)c1cc2n(n1)-c1ccccc1OCC2)c1ccc(F)cc1F [compound 101, N-(2,4-difluorophenyl)-N-methyl-4,5-dihydrobenzo[b]pyrazolo[1,5-d][1,4]oxazepine-2-carboxamide]
- IC50 [1]: 0.77 µM

Structure (SMILES): NC(=O)c1ccc2c(c1)-c1nc(-c3ncnn3-c3ccccc3Cl)cn1CCO2 [compound 102, 2-(1-(2-chlorophenyl)-1H-1,2,4-triazol-5-yl)-5,6-dihydrobenzo[f]imidazo[1,2-d][1,4]oxazepine-10-carboxamide]
- IC50 [1]: 0.003 µM

Structure (SMILES): Fc1ccc(-n2ncnc2-n2cc3c(n2)-c2ccc(Br)cc2OCC3)c(F)c1 [compound 103, 2-(1-(2,4-difluorophenyl)-1H-1,2,4-triazol-5-yl)-8-bromo-4,5-dihydrobenzo-2H-oxepino[4,5-d]pyrazole]
- IC50 [1]: 0.058 µM

Structure (SMILES): NC(=O)c1ccc2c(c1)OCCc1cn(-c3ncnn3-c3ccc(F)cc3F)nc1-2 [compound 107, 2-(1-(2,4-difluorophenyl)-1H-1,2,4-triazol-5-yl)-4,5-dihydrobenzo-2H-oxepino[4,5-d]pyrazole-8-carboxamide]
- EC50 [2]: 1.05 µM
- EC50 [3]: 0.259 µM
- EC50 [4]: 1.41 µM
- EC50 [5]: 0.999 µM

Structure (SMILES): Clc1ccccc1-n1ncnc1-n1cc2c(n1)-c1cc(C3CCNCC3)ccc1OCC2 [compound 154, 2-(1-(2-chlorophenyl)-1H-1,2,4-triazol-5-yl)-9-piperid-4-yl-4,5-dihydrobenzo-2H-oxepino[4,5-d]pyrazole]
- IC50 [1]: 0.00091 µM

Structure (SMILES): CC(C)n1ncnc1-c1cc2n(n1)-c1cc(C3CN(C(C)(C)CO)C3)ccc1OCC2 [compound 170, 2-(3-(2-(1-isopropyl-1H-1,2,4-triazol-5-yl)-4,5-dihydrobenzo[b]pyrazolo[1,5-d][1,4]oxazepin-9-yl)azetidin-1-yl)-2-methylpropan-1-ol]
- IC50 [1]: 0.022 µM

Structure (SMILES): CS(=O)(=O)CCN1CC(c2ccc3c(c2)OCCc2cn(-c4ncnn4-c4ccc(F)cc4F)nc2-3)C1 [compound 171, 2-(1-(2,4-difluorophenyl)-1H-1,2,4-triazol-5-yl)-8-(1-(2-(methylsulfonyl)ethyl)azetidin-3-yl)-4,5-dihydrobenzo-2H-oxepino[4,5-d]pyrazole]
- IC50 [1]: 0.00066 µM

Structure (SMILES): Cc1nc(-c2cn3c(n2)-c2ccc(-c4cnn(CCO)c4)cc2OCC3)n(C(C)C)n1 [compound 186, 2-(4-(2-(1-isopropyl-3-methyl-1H-1,2,4-triazol-5-yl)-5,6-dihydrobenzo[f]imidazo[1,2-d][1,4]oxazepin-9-yl)-1H-pyrazol-1-yl)ethanol]
- EC50 [6]: 0.42 µM
- EC50 [2]: 0.71 µM
- EC50 [7]: 0.324 µM
- EC50 [8]: 0.86 µM
- EC50 [3]: 0.47 µM
- EC50 [4]: 2 µM
- EC50 [9]: 2.95 µM
- EC50 [10]: 0.088 µM
- EC50 [11]: 0.133 µM
- EC50 [5]: 1.3 µM
- EC50 [12]: 1.1 µM

Structure (SMILES): Cc1nc(-c2cn3c(n2)-c2ccc(-c4cnn(C(C)(C)C(N)=O)c4)cc2OCC3)n(C(C)C)n1 [compound 196, 2-(4-(2-(1-isopropyl-3-methyl-1H-1,2,4-triazol-5-yl)-5,6-dihydrobenzo[f]imidazo[1,2-d][1,4]oxazepin-9-yl)-1H-pyrazol-1-yl)-2-methylpropanamide]
- EC50 [6]: 0.128 µM
- EC50 [2]: 0.178 µM
- EC50 [7]: 0.086 µM
- EC50 [3]: 0.152 µM
- EC50 [13]: 10 µM
- EC50 [10]: 0.016 µM
- EC50 [11]: 0.045 µM

Structure (SMILES): CC(C)n1nc(N)nc1-c1cn2c(n1)-c1ccc(F)cc1OCC2 [compound 253, 5-(9-fluoro-5,6-dihydrobenzo[f]imidazo[1,2-d][1,4]oxazepin-2-yl)-1-isopropyl-1H-1,2,4-triazol-3-amine]
- IC50 [1]: 0.0044 µM

Structure (SMILES): Cc1nc(-c2cn3c(n2)-c2ccc(OC4COC4)cc2OCC3)n(C(C)C)n1 [compound 520, 2-(1-isopropyl-3-methyl-1H-1,2,4-triazol-5-yl)-9-(oxetan-3-yloxy)-5,6-dihydrobenzo[f]imidazo[1,2-d][1,4]oxazepine]
- Ki ([1]; read-out: Ki, inhibition of PI3K alpha (binding to p110 alpha)): 0.0021 µM

The next lines start with results.

- IC50 [1]: 0.002 µM
Structure (SMILES): CC(C)NC(=O)CN1CC(c2ccc3c(c2)OCCn2cc(-c4ncnn4C(C)C)nc2-3)C1 [compound 200, N-isopropyl-2-(3-(2-(1-isopropyl-1H-1,2,4-triazol-5-yl)-5,6-dihydrobenzo[f]imidazo[1,2-d][1,4]oxazepin-9-yl)azetidin-1-yl)acetamide]

- EC50 [6]: 3.39 µM
- EC50 [2]: ≥ 10 µM
- EC50 [7]: 1.68 µM
- EC50 [14]: 1.29 µM
- EC50 [15]: 5.77 µM
- EC50 [9]: ≥ 10 µM
- EC50 [11]: 0.762 µM
- EC50 [5]: 0.762 µM
Structure (SMILES): CC(C)n1ncnc1-c1cn2c(n1)-c1ccc(-c3cn(CCO)cn3)cc1OCC2 [compound 207, 2-(4-(2-(1-isopropyl-1H-1,2,4-triazol-5-yl)-5,6-dihydrobenzo[f]imidazo[1,2-d][1,4]oxazepin-9-yl)-1H-imidazol-1-yl)ethanol]
- EC50 [3]: 3.73 µM
- EC50 [4]: 1.77 µM
- EC50 [10]: 1.36 µM
- EC50 [16]: ≥ 10 µM
- EC50 [17]: 7.79 µM
- EC50 [12]: 7.25 µM

- IC50 [1]: 0.00037 µM
Structure (SMILES): CNC(=O)C(C)(C)N1CCC(c2ccc3c(c2)OCCn2cc(-c4ncnn4C(C)C)nc2-3)CC1 [compound 248, 2-(4-(2-(1-isopropyl-1H-1,2,4-triazol-5-yl)-5,6-dihydrobenzo[f]imidazo[1,2-d][1,4]oxazepin-9-yl)piperidin-1-yl)-N,2-dimethylpropanamide]

- IC50 [1]: 0.0014 µM
Structure (SMILES): Cc1nc(-c2cn3c(n2)-c2ccc(-c4cnn(C(C)(C)C(=O)O)c4)cc2OCC3)n(C(C)C)n1 [compound 251, 2-(4-(2-(1-isopropyl-3-methyl-1H-1,2,4-triazol-5-yl)-5,6-dihydrobenzo[f]imidazo[1,2-d][1,4]oxazepin-9-yl)-1H-pyrazol-1-yl)-2-methylpropanoic acid]

- IC50 [1]: 0.00032 µM
Structure (SMILES): CC(C)n1ncnc1-c1cn2c(n1)-c1cnc(N3CCC[C@H]3C(N)=O)cc1OCC2 [compound 338, (2S)-1-(2-(1-isopropyl-1H-1,2,4-triazol-5-yl)-5,6-dihydroimidazo[1,2-d]pyrido[3,4-f][1,4]oxazepin-9-yl)pyrrolidine-2-carboxamide]
